From US4371523A, “Reducing the aggregation of insulin in solution” (The Regents of the University of California, priority 1980, dated 1983)
“Also recorded” adds a separate entry of the source.

Legend:
[1] = biological target: T1, single component neutral pork zinc insulin (Sus scrofa, UniProt P01315); experiment: Controlled shaking of zinc insulin solutions in test tubes, optical density at 600 nm; format: physicochemical; details: for Optical Density ± 1 × SE: zinc insulin 50 U/ml, OD at 600 nm
T1 construct: single component, neutral, pork, zinc-insulin (U.500 regular Iletin II., Eli Lilly & Company); purchased Eli Lilly & Company U.500 regular Iletin II
Experimental: In vitro testing of single component neutral pork zinc insulin was undertaken with a number of added agents. Solutions at about neutral pH and at acid pH were tested. In addition, some testing was also undertaken with Na insulin.
The tests were conducted using plastic tybes (5 ml test tubes, Sarstedt, sealed by plastic caps covered with paraffin) each containing 2 ml of the insulin solutions noted below. The tubes were continuously agitated in a metabolic shaking incubator (Dubnoff E.C.A. Co.) at 60 to 80 r.p.m. and 37° C. for periods up to sixteen days.
The zinc insulin solutions were prepared by appropriate dilutions of highly concentrated (500 U/ml) single component, neutral, pork, zinc-insulin (U.500 regular Iletin II., Eli Lilly & Company). The unbuffered diluting fluid contained glycerin, 16 mg/ml, and phenol, 2 mg/ml of distilled water (Eli Lilly & Company). […] Final insulin concentration in all solutions was 50 U/ml (2 mg/ml).
Insulin solutions with amino acid added were prepared by addition of the dry amino acids (Sigma Company) to the neutral zinc or sodium insulin solutions. Final concentration of the amino acid additives was 7 mg per ml of insulin solution. pH was adjusted, when necessary, to 7.5 for neutral insulin mixtures and to 3.3-3.5 for acid insulin mixtures.
Several non-amino carboxylic acids, i.e., lactic acid, acetic acid, and citric acid, were added under the same conditions of concentration and pH as described for the amino acids.
The various insulin solutions, both as made up without additives and with additives, were shaken as noted above for up to sixteen days, at which time the solutions were examined with an optical densitometer at a wave length 600 nm. The optical density (OD) of each solution was an indication of the amount of aggregation present after the shaking period. The higher the optical density, the greater the aggregation in that solution.

pork sodium-insulin = biological target: T2, pork sodium-insulin (Sus scrofa, UniProt P01315); experiment: Controlled shaking of Na insulin solutions in test tubes, optical density at 600 nm; format: physicochemical; details: for Optical Density ± 1 × SE: Na insulin 50 U/ml, OD at 600 nm
T2 construct: pork sodium-insulin crystals (U.1000 neutral sodium insulin special pork obtained from Eli Lilly & Company); purchased Eli Lilly & Company U.1000 neutral sodium insulin special pork
Experimental: In vitro testing of single component neutral pork zinc insulin was undertaken with a number of added agents. Solutions at about neutral pH and at acid pH were tested. In addition, some testing was also undertaken with Na insulin. The tests were conducted using plastic tybes (5 ml test tubes, Sarstedt, sealed by plastic caps covered with paraffin) each containing 2 ml of the insulin solutions noted below. The tubes were continuously agitated in a metabolic shaking incubator (Dubnoff E.C.A. Co.) at 60 to 80 r.p.m. and 37° C. for periods up to sixteen days. The sodium insulin solutions were made by dissolving pork sodium-insulin crystals (U.1000 neutral sodium insulin special pork obtained from Eli Lilly & Company) in the same diluting fluid as utilized with the zinc insulin. The solutions were adjusted to neutral or acid pH as indicated above. Final insulin concentration in all solutions was 2 mg/ml (50 U/ml). Insulin solutions with amino acid added were prepared by addition of the dry amino acids (Sigma Company) to the neutral zinc or sodium insulin solutions. Final concentration of the amino acid additives was 7 mg per ml of insulin solution. pH was adjusted, when necessary, to 7.5 for neutral insulin mixtures and to 3.3-3.5 for acid insulin mixtures. The various insulin solutions, both as made up without additives and with additives, were shaken as noted above for up to sixteen days, at which time the solutions were examined with an optical densitometer at a wave length 600 nm. The optical density (OD) of each solution was an indication of the amount of aggregation present after the shaking period. The higher the optical density, the greater the aggregation in that solution.

insulin = details: supplemental material added to insulin solution; cited from earlier work
[2] = agent added to insulin solution at acid pH 3.3-3.5
[3] = pH 3.3-3.5, shaken 16 days at 37° C.
[4] = pH 7.4, shaken 16 days at 37° C., higher OD = greater aggregation

T1 sequence (P01315 25-54 limits assumed): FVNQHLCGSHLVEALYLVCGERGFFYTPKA
T1 sequence (P01315 88-108 limits assumed): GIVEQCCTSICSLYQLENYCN
T2 sequence (P01315 25-54 limits assumed): as the sequence (P01315 25-54 limits assumed) above

Compound	Protective effect against insulin aggregation (in words) [1, 2]	Optical Density ± 1 × SE [1, 4]	also measured
N[C@@H](CSSC[C@H](N)C(=O)O)C(=O)O [cystine]	no protective effect was noted		
CC(=O)O [Acetic Acid]	do not prevent aggregation; also recorded: a comparable protective effect was not noted		Protective effect against insulin aggregation (in words) ([1]; agent added to insulin solution at acid pH 3.3-3.5, listed as acetate): exacerbate aggregation
N[C@@H](CCC(=O)O)C(=O)O [Glutamic Acid]		0.717 ± 0.266	Protective effect against insulin aggregation (in words) ([1]; agent added to insulin solution at acid pH 3.3-3.5, listed as Glutamic acid): prevented the development of any appreciable aggregation throughout the entire experiment; Protective effect against insulin aggregation (in words) ([1]; agent added to insulin solution at acid pH 3.3-3.5, listed as glutamic acid): particularly effective in protecting insulin solutions from aggregation; Protective effect against insulin aggregation (in words) ([1]; agent added to insulin solution at neutral pH (about pH 7, pH 7.4), listed as Glutamic acid): do not offer any effective protection; Protective effect against insulin aggregation (in words) ([1]; agent added to insulin solution at neutral pH (about pH 7, pH 7.4), listed as glutamic acid): the protective effect of the agents are no longer apparent; Optical Density ± 1 × SE [1, 3]: 0.123 ± 0.02; Optical Density ± 1 × SE (pork sodium-insulin; pH 3.5, shaken at 37° C.): 0.13 ± 0.03
Cl [hydrochloric acid]	a comparable protective effect was not noted		
N=C(N)NCCC[C@H](N)C(=O)O [Arginine]	no protective effect was noted	0.074 ± 0.03	Observation of the solution after shaking ([1]; zinc insulin, pH 7.4, 16 days): Gel formed
Na Insulin: pork sodium-insulin crystals (U.1000 neutral sodium insulin special pork, Eli Lilly & Company) in solution, no agent added			Optical Density ± 1 × SE (pork sodium-insulin; pH 3.5, shaken at 37° C.): 0.128 ± 0.02; Optical Density ± 1 × SE (pork sodium-insulin; pH 7.4, shaken at 37° C.): 0.18 ± 0.02; Aggregation of Na insulin (in words) (pork sodium-insulin; pH 3.3-3.5): less than at pH 7.4 but is nevertheless appreciable; Aggregation of Na insulin (in words) (pork sodium-insulin; pH 7.4, by 16 days): also aggregates; also recorded: aggregation is less than that seen for neutral zinc insulin at the same pH
C[C@@H](O)[C@H](N)C(=O)O [Threonine]	no protective effect was noted	0.76 ± 0.02	
NC(=O)C[C@H](N)C(=O)O [Asparagine]	no protective effect was noted	0.87 ± 0.13	
NCC(=O)O [Glycine]	no protective effect was noted	0.66 ± 0.095	Optical Density ± 1 × SE [1, 3]: 0.28 ± 0.04; Effect in preventing the aggregation of insulin in solution over extended periods of time (insulin): do not appear to have any appreciable effect
O=C([O-])O.[Na+] [sodium bicarbonate]			Effect in preventing the aggregation of insulin in solution over extended periods of time (insulin): do not appear to have any appreciable effect
O=C(O)CC(O)(CC(=O)O)C(=O)O [Citric Acid]	do not prevent aggregation; also recorded: a comparable protective effect was not noted		Protective effect against insulin aggregation (in words) ([1]; agent added to insulin solution at acid pH 3.3-3.5, listed as citrate): exacerbate aggregation
CC(C)C[C@H](N)C(=O)O [Leucine]	no protective effect was noted	0.695 ± 0.03	
CSCC[C@H](N)C(=O)O [Methionine]	no protective effect was noted	0.74 ± 0.22	
O=C(O)CN(CCN(CC(=O)O)CC(=O)O)CC(=O)O [ethylene diamine tetraacetic acid]			Effect in preventing the aggregation of insulin in solution over extended periods of time (insulin): do not appear to have any appreciable effect
N[C@@H](CO)C(=O)O [Serine]	no protective effect was noted	0.89 ± 0.02	
CC(O)C(=O)O (stereo not shown) [Lactic Acid]	do not prevent aggregation; also recorded: a comparable protective effect was not noted		Protective effect against insulin aggregation (in words) ([1]; agent added to insulin solution at acid pH 3.3-3.5, listed as lactate): exacerbate aggregation
N[C@@H](CS)C(=O)O [Cysteine]		0.34 ± 0.13	Optical Density ± 1 × SE [1, 3]: 0.39 ± 0.08; Effect in preventing the aggregation of insulin in solution over extended periods of time (insulin): do not appear to have any appreciable effect
O=C(O)[C@@H]1CCCN1 [Proline]	no protective effect was noted	0.665 ± 0.21	
C[C@H](N)C(=O)O [Alanine]	no protective effect was noted	0.84 ± 0.04	Optical Density ± 1 × SE [1, 3]: 0.41 ± 0.02
NC(=O)CC[C@H](N)C(=O)O [Glutamine]	no protective effect was noted	0.68 ± 0.03	
N[C@@H](Cc1c[nH]c2ccccc12)C(=O)O [Tryptophane]	no protective effect was noted	0.585 ± 0.200	
NCCCC[C@H](N)C(=O)O [Lysine]	no protective effect was noted	0.25 ± 0.08	Optical Density ± 1 × SE [1, 3]: 0.35 ± 0.13
N[C@@H](Cc1c[nH]cn1)C(=O)O [Histidine]	no protective effect was noted	0.245 ± 0.08	Effect in preventing the aggregation of insulin in solution over extended periods of time (insulin): do not appear to have any appreciable effect
[Cl-].[Na+] [sodium chloride]			Effect in preventing the aggregation of insulin in solution over extended periods of time (insulin): do not appear to have any appreciable effect
CC(C)[C@H](N)C(=O)O [Valine]	no protective effect was noted	0.64 ± 0.26	
O=P(O)(O)O [sodium phosphate]			Effect in preventing the aggregation of insulin in solution over extended periods of time (insulin): do not appear to have any appreciable effect
OCc1ccccc1 [benzol alcohol]			Effect in preventing the aggregation of insulin in solution over extended periods of time (insulin): do not appear to have any appreciable effect
